Target: T1, BRD4 in HeLa cells (Homo sapiens, UniProt O60885)
T1 construct: endogenous in cells; host or cells: HeLa
Assay: BRD4 degradation assay (Western blot, 24 h treatment)
Format: cell-based
Settings: doses up to 10 μM
Experimental: HeLa cells were seeded in 6-well plates (700,000 cells) and allowed to adhere overnight. Media was replaced one hour before administering either vehicle (DMSO) or test compounds. After 24 hours of treatment, the media was discarded, and cells were rinsed once with ice-cold 1×PBS before detached from plates with ice-cold RIPA Lysis and Extraction Buffer (Thermo Fisher Scientific) which was supplemented with protease and phosphatase inhibitors. The resulting cell suspensions were transferred to pre-chilled microcentrifuge tubes, incubated on ice for 20 min with intermittent mixing and then centrifuged at 12,000 rpm for 20 min at 4° C. The supernatants were then aspirated slowly and transferred into new tubes kept on ice. The protein concentration in the samples was determined using BCA kit (Thermo Fisher Scientific) as per manufacturer's instructions.
For the BRD4 degradation assay, cell lysates were prepared with RIPA buffer containing 0.25% SDS. These were mixed with 4× Laemmli protein sample buffer (Bio-Rad) supplemented with beta-mercaptoethaol (355 mM). The lysates were then heated at 95° C. for 5 min, and briefly centrifuged for 10-15 seconds.
For p62 oligomerization and LC3 lipidation assays, lysates containing 30 μg of protein and for BRD4 and FKBP12(F36V) degradation assays, lysates containing 20 μg of protein, were loaded slowly into the wells of 4-20% gradient Tris-glycine gels (Bio-Rad). The gels were run at 100V until completion and transferred onto PVDF membranes. Membranes were blocked using 5% milk in TBS-Tween (0.1%) buffer at room temperature for 1 hour. The membranes were incubated with primary antibody in 5% milk-TBST with shaking, overnight at 4° C. […] For the p62 oligomerization assay, the total protein levels were assessed using Ponceau staining (Thermo Fisher Scientific) of PVDF membrane as per recommendation by manufacturer's guidelines.
Imaging was acquired using SuperSignal™ West Pico PLUS Chemiluminescent Substrate (Thermo Fisher Scientific) with iBright Invitrogen FL100 imaging system. Band signal intensity, reflective of protein concentrations, were quantified using Invitrogen™ iBright™ Analysis and Image J software.
To evaluate levels of protein degradation by compounds 100-103, HeLa cells were treated with the corresponding compounds at doses up to 10 μM for 24 hours. The changes in levels of BRD4 and GAPDH (loading control) were assessed by Western blotting, as described in experimental procedures. Results are summarized in Table 11 below, measured by percentage change in BRD4 levels by compound treatment relative to vehicle (DMSO) control.

Structure (SMILES): Cc1sc2c(c1C)C(c1ccc(Cl)cc1)=N[C@@H](CC(=O)NCCOCCOCCNCc1ccc3cc(Cc4ccccc4)oc3c1)c1nnc(C)n1-2 [compound 103]
- Degradation (change in BRD4 levels relative to DMSO control): ++ (> 2-fold change in BRD4 levels relative to DMSO control)

Reference: US20250282742A1, “BENZOFURAN DERIVATIVES FOR TARGETING AUTOPHAGY” (Automera PTE. LTD, priority 2024, published 2025)
